Measurements published in patent US9550767B2, “Crystalline form of (R)-7-chloro-N-(quinuclidin-3-yl)benzo[b]thiophene-2-carboxamide hydrochloride monohydrate” (Forum Pharmaceuticals, Inc., priority 2010, dated 2017).
Counter-ions that a name gives are not always drawn. Like-named read-outs stand apart in the source and are kept apart here. Blank lines part the entries; values can stand above or below the compound they belong to.

Legend:
Type in all cases: physicochemical
[1] = Solubility measurements of Forms I and II in aqueous acetonitrile (HPLC, equilibrium plateau); conditions: for solubility: aqueous acetonitrile; for Thermodynamic relationship between forms I and II crystals: based on solubility measurements in aqueous acetonitrile
Description: Solubility of Forms I and II was measured at various temperatures between 5° C. and 45° C. in aqueous acetonitrile in which water concentration was from 0 to 10 v/v % respectively.
Solubility was measured according to the following procedure. Form I or II crystals and an aqueous acetonitrile were added to a glass vessel. The mixture was stirred with a Teflon-coated magnetic stirrer bar at a defined temperature controlled with aluminum block. The liquid phase was sampled periodically, and the concentration of the compound was measured with high performance liquid chromatography (HPLC). Solid material was also collected at the same time to identify the crystal form using XRPD. In analyzing the time course of the change in concentration, that plateau zone was identified as an equilibrium condition, and the mean value of these concentrations was defined as “solubility” under that condition.

[2] = Solubility in water (shaking 20 minutes, HPLC UV 210 nm); conditions: for solubility at 20 min: thermodynamic from solid; for Solubility in water: hydrochloride monohydrate
Description: Excess amount of the samples, Forms I and II, were suspended in water, and were equilibrated by shaking for 20 minutes at 25° C. or 37° C., respectively. The amounts of dissolved the compound were determined using a Waters alliance HPLC system 2695, detected by UV 210 nm.

[3] = Stability under storage conditions (temperature/humidity); conditions: 11% RH at 40° C., 75% RH at 40° C., 11% RH at 60° C. and 75% RH at 60° C. after 2 weeks
Source text: (§1) The crystalline Forms I and II are very stable in many aspects. Both forms are stable under storage conditions. […] Both forms are also stable under physical stress. The XRD charts of both forms were not changed after compression experiments with a planar pestle (1000 kgf/cm^2).

[4] = Stability under photo storage conditions; conditions: light (D65 lamp) of 1.2 million Lux hours at 25° C.
Source text: as §1

[5] = Stability under physical stress (compression with planar pestle, XRD); conditions: 1000 kgf/cm^2
Source text: as §1

[6] = Hygroscopicity (DVS-1); conditions: between 10% RH and 90% RH at 25° C.; for Hygroscopicity: hydrochloride monohydrate
Description: The hygroscopicity of Forms I and II were investigated using a Surface measurement systems, DVS-1, between 10% RH and 90% RH at 25° C.

[7] = Crystallization behavior in 98 v/v % aqueous acetonitrile (XRPD); conditions: seeded experiments
Description: Form I crystals were added to 98 v/v % aqueous acetonitrile in a glass vessel. Next, 98 v/v % aqueous acetonitrile was added to make the mixture 40 v/w times relative to the Form I crystal. The mixture was stirred with Teflon-coated magnetic stirrer bar and heated to 80° C. with aluminum block. After the crystals were dissolved, the mixture was cooled to a determined temperature at the rate of 30° C. per hour. After a determined holding time, Form I crystals were added as seed crystals according to object of an experiment. Precipitates were sampled periodically and analyzed by XRPD.

[8] = Transformation behavior in 98 v/v % aqueous acetonitrile (seeded slurry, XRPD)
Description: Form I crystals and 40 v/w times volume of 98 v/v % aqueous acetonitrile were added to a glass vessel. The mixture was stirred with Teflon-coated magnetic stirrer bar and heated to 80° C. with aluminum block. After dissolved, solution was cooled to 5° C. at the rate of 30° C. per hour. To the slurry of Form X, 10 w/w % of Form I crystals were added as seed crystals at 5° C., then controlled to a certain temperature. Samples of solid material were analyzed by XRPD on a periodic basis.

[9] = Transformation behavior in 97 v/v % aqueous acetonitrile (XRPD)
Description: Form X crystals and 97 v/v % aqueous acetonitrile were added to a glass vessel. The mixture was stirred with Teflon-coated magnetic stirrer bar at the temperature controlled with aluminum block. Solid component was sampled periodically and analyzed by XRPD to determine the crystal form.

solubility ([1]; 5 °C, organic solvent or mixture, thermodynamic from solid, water concentration 0 v/v %, 5 °C, read-out: Solubility): 1 mg/mL
solubility ([1]; 5 °C, organic solvent or mixture, thermodynamic from solid, water concentration 2 v/v %, 5 °C, read-out: Solubility): 2.4 mg/mL
solubility ([1]; 5 °C, organic solvent or mixture, thermodynamic from solid, water concentration 6 v/v %, 5 °C, read-out: Solubility): 12.8 mg/mL
solubility ([1]; 12.5 °C, organic solvent or mixture, thermodynamic from solid, water concentration 3.5 v/v %, 12.5 °C, read-out: Solubility): 5.4 mg/mL
solubility ([1]; 12.5 °C, organic solvent or mixture, thermodynamic from solid, water concentration 8.5 v/v %, 12.5 °C, read-out: Solubility): 27.6 mg/mL
solubility ([1]; 25 °C, organic solvent or mixture, thermodynamic from solid, water concentration 0 v/v %, 25 °C, read-out: Solubility): 1.3 mg/mL
solubility ([1]; 25 °C, organic solvent or mixture, thermodynamic from solid, water concentration 2 v/v %, 25 °C, read-out: Solubility): 4.1 mg/mL
solubility ([1]; 25 °C, organic solvent or mixture, thermodynamic from solid, water concentration 6 v/v %, 25 °C, read-out: Solubility): 17.1 mg/mL
solubility ([1]; 25 °C, organic solvent or mixture, thermodynamic from solid, water concentration 10 v/v %, 25 °C, read-out: Solubility): 47.5 mg/mL
solubility ([1]; 37.5 °C, organic solvent or mixture, thermodynamic from solid, water concentration 3.5 v/v %, 37.5 °C, read-out: Solubility): 10 mg/mL
solubility ([1]; 37.5 °C, organic solvent or mixture, thermodynamic from solid, water concentration 8.5 v/v %, 37.5 °C, read-out: Solubility): 44.4 mg/mL
solubility ([1]; 45 °C, organic solvent or mixture, thermodynamic from solid, water concentration 2 v/v %, 45 °C, read-out: Solubility): 8.7 mg/mL
solubility ([1]; 45 °C, organic solvent or mixture, thermodynamic from solid, water concentration 6 v/v %, 45 °C, read-out: Solubility): 27.2 mg/mL
solubility ([1]; 45 °C, organic solvent or mixture, thermodynamic from solid, water concentration 10 v/v %, 45 °C, read-out: Solubility): 71.6 mg/mL
Thermodynamic relationship between forms I and II crystals [1]: enantiotropy
solubility at 20 min ([2]; 25 °C): 39 mg/mL
solubility at 20 min ([2]; 37 °C): 90 mg/mL
Degradation products under storage conditions [3]: No degradation products
Degradation products under photo storage conditions [4]: no degradation products
XRD chart after compression [5]: not changed
Hygroscopicity [6]: no hygroscopicity
SMILES: O=C(N[C@H]1CN2CCC1CC2)c1cc2cccc(Cl)c2s1 [Form I, (R)-7-chloro-N-(quinuclidin-3-yl)benzo[b]thiophene-2-carboxamide hydrochloride monohydrate]
Relative stability of Form I versus Form X [7]: more stable than Form X regardless of temperature
Relative stability of Form I versus Form X [8]: more stable than Form X regardless of temperature
Relative stability of Form I versus Form X [9]: more stable than Form X regardless of temperature

solubility ([1]; 5 °C, organic solvent or mixture, thermodynamic from solid, water concentration 10 v/v %, 5 °C, read-out: Solubility): 29.7 mg/mL
solubility ([1]; water concentration 2 v/v %, 5 °C, hydrochloride monohydrate): 2.6
solubility ([1]; water concentration 2 v/v %, 25 °C, hydrochloride monohydrate): 4.7
solubility ([1]; water concentration 3.5 v/v %, 12.5 °C, hydrochloride monohydrate): 5.7
solubility ([1]; water concentration 6 v/v %, 5 °C, hydrochloride monohydrate): 11.2
solubility ([1]; water concentration 6 v/v %, 25 °C, hydrochloride monohydrate): 16.7
solubility ([1]; water concentration 6 v/v %, 45 °C, hydrochloride monohydrate): 29.6
solubility ([1]; water concentration 8.5 v/v %, 12.5 °C, hydrochloride monohydrate): 25.1
solubility ([1]; water concentration 8.5 v/v %, 37.5 °C): 44.4
solubility ([1]; water concentration 10 v/v %, 25 °C, hydrochloride monohydrate): 44.6
solubility ([1]; water concentration 10 v/v %, 45 °C, hydrochloride monohydrate): 74.5
Thermodynamic relationship between forms I and II crystals [1]: enantiotropy
Solubility in water ([2]; 25° C.): 30 mg/mL
Solubility in water ([2]; 37° C.): 54 mg/mL
Degradation products under storage conditions [3]: No degradation products
Degradation products under photo storage conditions [4]: no degradation products
XRD chart after compression [5]: not changed
Channel water absorbed and desorbed [6]: ca. 1 mol
Water value increased and decreased by absorption and desorption [6]: approximately 4%
Hygroscopicity [6]: there was a hygroscopicity
SMILES: O=C(N[C@H]1CN2CCC1CC2)c1cc2cccc(Cl)c2s1 [Form II, (R)-7-chloro-N-(quinuclidin-3-yl)benzo[b]thiophene-2-carboxamide hydrochloride monohydrate]
